Data set [1] has as its target T1, AR transcriptional activity (Homo sapiens, UniProt P10275, T878A).
T1 construct: The LNCaP eGFP cell line was stably transfected with an androgen-responsive probasin-derived promoter fused to an eGFP reporter; endogenous in cells; host or cells: LNCaP eGFP (LN-ARR2PB-eGFP) human prostate cancer cells
T1 sequence (P10275 1-920 T878A): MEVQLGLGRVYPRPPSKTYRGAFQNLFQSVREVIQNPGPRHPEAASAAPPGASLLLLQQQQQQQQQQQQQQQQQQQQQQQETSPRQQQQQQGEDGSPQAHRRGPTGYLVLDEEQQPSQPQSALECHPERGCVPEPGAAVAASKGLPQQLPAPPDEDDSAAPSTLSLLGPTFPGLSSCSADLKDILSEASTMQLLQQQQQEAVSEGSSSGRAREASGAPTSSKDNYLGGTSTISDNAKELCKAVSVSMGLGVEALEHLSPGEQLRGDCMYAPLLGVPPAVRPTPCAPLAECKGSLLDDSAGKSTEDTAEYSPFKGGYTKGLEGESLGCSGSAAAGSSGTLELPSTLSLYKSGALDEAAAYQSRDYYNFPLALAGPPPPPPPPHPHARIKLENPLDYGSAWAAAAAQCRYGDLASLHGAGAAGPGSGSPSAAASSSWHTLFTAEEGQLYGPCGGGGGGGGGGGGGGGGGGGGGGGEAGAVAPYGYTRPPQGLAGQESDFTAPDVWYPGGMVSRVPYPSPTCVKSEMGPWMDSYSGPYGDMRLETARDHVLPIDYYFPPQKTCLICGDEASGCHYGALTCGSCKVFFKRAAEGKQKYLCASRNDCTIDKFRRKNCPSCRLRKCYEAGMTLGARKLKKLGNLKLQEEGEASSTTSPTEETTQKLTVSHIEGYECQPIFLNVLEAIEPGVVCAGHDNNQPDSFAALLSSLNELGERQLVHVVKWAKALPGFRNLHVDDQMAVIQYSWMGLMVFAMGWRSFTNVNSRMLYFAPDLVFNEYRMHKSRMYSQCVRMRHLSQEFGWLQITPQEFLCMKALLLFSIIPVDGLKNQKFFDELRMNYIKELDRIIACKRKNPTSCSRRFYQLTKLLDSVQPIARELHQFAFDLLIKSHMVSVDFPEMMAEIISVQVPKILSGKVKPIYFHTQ
As to the kind of experiment: eGFP cellular AR transcription assay. Conditions: for IC50: LNCaP eGFP cell line; for inhibition at 1 µM: read-out: eGFP % inhib. at 1 μM. It is filed as cell-based. The text has this: The DNA-binding domain is an attractive target for inhibition of AR dimerization and/or DNA binding. In silico computational drug discovery methods were used to conduct a virtual screen of >3 million purchasable lead-like compounds from the ZINC database (Irwin, J. et al.^11) to identify potential DBD binders. The in silico methods included large-scale docking, in-site rescoring and consensus voting procedures. It will be understood by a person of skill that COOH and NR2 may include the corresponding ions, for example carboxylate ions and ammonium ions, respectively. Alternatively, where the ions are shown, a person of skill in the art will appreciate that the counter ion may also be present. Furthermore, it will be appreciated by a person of skill that other moieties may include the corresponding ions, and where the ions are shown, a person of skill in the art will appreciate that the counter ion may also be present. […] Where the % inhibition, eGFP IC50 or the PSA IC50 has no value given, this may be because no measurement was taken or the value was not calculated, in the case of the % inhibition. In vitro identification of AR inhibitors targeting AR DBD The selected compounds were assessed with a non-destructive eGFP assay that quantifies levels of AR transcriptional activity, were identified (table below).
1. Cell Culture: LNCaP and PC3 human prostate cancer cells were obtained from American Type Culture Collection (ATCC, Manassas, Va.) and grown in RPMI 1640 medium supplemented with 5% fetal bovine serum (FBS) (Invitrogen). The LNCaP eGFP cell line was stably transfected with an androgen-responsive probasin-derived promoter fused to an eGFP reporter (LN-ARR2PB-eGFP) using a lentiviral approach, and were grown in phenol-red-free RPMI 1640 supplemented with 5% CSS. In-house developed MDV3100-resistant LNCaP cells were cultured in RPMI 1640 supplemented with 5% FBS and 10 μM MDV3100. All cells were maintained at 37° C. in 5% CO2.
2. eGFP cellular AR transcription assay: The AR transcriptional activity was assayed as previously described (Tavassoli, P., et al.^12).

A further data set can be described thus: in vitro. Conditions: human, microsomes; for microsomal CLint at 2 μM: pH 7.4. The method, then: Microsomal incubations were carried out in 96-well plates in 5 aliquots of 40 μL each (one for each time point). […] Control incubations were performed replacing the NADPH-cofactor system with PBS. […] Incubations were performed in duplicates. Five time points over 40 minutes had been analyzed. The reactions were stopped by adding 12 volumes of 90% acetonitrile-water to incubation aliquots, followed by protein sedimentation by centrifuging at 5500 rpm for 5 minutes. Supernatants were analyzed using the HPLC system coupled with tandem mass spectrometer. The elimination constant (kel), half-life (t1/2) and intrinsic clearance (Clint) were determined in plot of […] versus time, using linear regression analysis: […]

Broadly, the IC50 is the concentration that gives 50% inhibition. Read a low IC50 as inhibition by little substance. As a reminder, the microsomal CLint is the rate of metabolic loss divided by the concentration.

`Clc1ncn(-c2csc(N3C[C@H]4CC[C@@H](C3)O4)n2)c1Br` [Example 21, (1R,5S)-3-[4-(5-bromo-4-chloro-imidazol-1-yl)thiazol-2-yl]-8-oxa-3-azabicyclo[3.2.1]octane] showed an IC50 in data set [1] of 300 nM. In “in vitro”, the “metabolic stability in human hepatic microsomal test system (in words)” value (from here on “metabolic stability”) was “high metabolic stability” and the intrinsic metabolic clearance (microsomal CLint) at 2 μM was 6 µL/min/mg.

As to `CC1CN(c2nc(-n3cc(Br)nc3Br)cs2)CCO1` (stereo not shown) [Example 22, 4-[4-(2,4-dibromoimidazol-1-yl)thiazol-2-yl]-2-methyl-morpholine], in data set [1], the IC50 came out at 400 nM. Moreover, the microsomal CLint at 2 μM in “in vitro” was 52 µL/min/mg.

In the case of `COc1nc(Br)cn1-c1csc(N2[C@@H]3CC[C@H]2COC3)n1` [Example 23, (1S,5R)-8-[4-(4-bromo-2-methoxy-imidazol-1-yl)thiazol-2-yl]-3-oxa-8-azabicyclo[3.2.1]octane], half-maximal inhibition in data set [1] (IC50) was put at 270 nM. Also, in the data set “in vitro”, the microsomal CLint at 2 μM turned out to be 22 µL/min/mg.

For the molecule `Clc1c(Br)ncn1-c1csc(N2C[C@H]3CC[C@@H](C2)O3)n1` [Example 24, (1R,5S)-3-[4-(4-bromo-5-chloro-imidazol-1-yl)thiazol-2-yl]-8-oxa-3-azabicyclo[3.2.1]octane], in data set [1], the half-inhibitory concentration (IC50) is 700 nM. Besides, in the data set “in vitro”, the “metabolic stability” value was “high metabolic stability” and the microsomal CLint at 2 μM was determined as 13 µL/min/mg.

In data set [1], `OCc1nc(Br)c(Br)n1-c1csc(N2[C@@H]3CC[C@H]2COC3)n1` [Example 36, [4,5-dibromo-1-[2-[(1R,5S)-3-oxa-8-azabicyclo[3.2.1]octan-8-yl]thiazol-4-yl]imidazol-2-yl]methanol] showed a concentration for half-maximal inhibition (IC50) of 2990 nM. Further, in the data set “in vitro”, the “metabolic stability” value is “high metabolic stability” and the microsomal CLint at 2 μM was 10 µL/min/mg.

Turning to `CCC1(CC)CN(c2nc(-n3cc(Br)nc3Br)cs2)CCO1` [Example 37, 4-[4-(2,4-dibromoimidazol-1-yl)thiazol-2-yl]-2,2-diethyl-morpholine], in data set [1], the inhibition at 1 µM amounted to 33%. The same molecule had a microsomal CLint at 2 μM in “in vitro” of 129 µL/min/mg.

For `FC(F)(F)C1CN(c2nc(-n3cc(Br)nc3Br)cs2)CCO1` (stereo not shown) [Example 38, 4-[4-(2,4-dibromoimidazol-1-yl)thiazol-2-yl]-2-(trifluoromethyl)morpholine], in data set [1], half-maximal inhibition (IC50) required 1950 nM. The molecule also showed a microsomal CLint at 2 μM in the data set “in vitro” of 44 µL/min/mg.

Turning to `Brc1cn(-c2csc(N3CCOC4(COC4)C3)n2)c(Br)n1` [Example 39, 8-[4-(2,4-dibromoimidazol-1-yl)thiazol-2-yl]-2,5-dioxa-8-azaspiro[3.5]nonane], in data set [1], the inhibition at 1 µM is 34%. Besides, the microsomal CLint at 2 μM in the data set “in vitro” amounted to 18 µL/min/mg.

As for `Cc1c(Br)ncn1-c1csc(N2CCOCC2)n1` [Example 53, 4-[4-(4-bromo-5-methyl-imidazol-1-yl)thiazol-2-yl]morpholine], in data set [1], the inhibition at 1 µM was 44%. In the data set “in vitro”, this molecule displayed a microsomal CLint at 2 μM of 72 µL/min/mg.

For the molecule `Cc1ncn(-c2csc(N3CCOCC3)n2)c1Br` [Example 54, 4-[4-(5-bromo-4-methyl-imidazol-1-yl)thiazol-2-yl]morpholine], in data set [1], the inhibition at 1 µM worked out at 28%. For the same molecule, the microsomal CLint at 2 μM in the data set “in vitro” was found to be 224 µL/min/mg.

Turning to `c1cn(-c2csc(N3CCOCC3)n2)cn1` [Example 55, 4-(4-imidazol-1-ylthiazol-2-yl)morpholine], the inhibition at 1 µM in data set [1] came to 17%. Further, in the data set “in vitro”, the “metabolic stability” value was “high metabolic stability” and the microsomal CLint at 2 μM was determined as 10 µL/min/mg.

For the molecule `CCOC(=O)c1nc(Br)c(Br)n1-c1csc(N2CCOCC2)n1` [Example 56, ethyl 4,5-dibromo-1-(2-morpholinothiazol-4-yl)imidazole-2-carboxylate], the inhibition at 1 µM in data set [1] is 12%. This molecule also came in with a microsomal CLint at 2 μM in “in vitro” of 33 µL/min/mg.

Turning to `OCc1nc(Br)c(Br)n1-c1csc(N2CCOCC2)n1` [Example 57, [4,5-dibromo-1-(2-morpholinothiazol-4-yl)imidazol-2-yl]methanol], the IC50 in data set [1] was determined as 6450 nM. In the data set “in vitro”, the “metabolic stability” value is given as “high metabolic stability” and the intrinsic metabolic clearance (microsomal CLint) at 2 μM is 10 µL/min/mg.

The record behind these values is patent US20200031848A1, “AR-V7 INHIBITORS” (Hoffmann-La Roche Inc., priority 2016, published 2020).
